# Test results from US11541033B2, “Agent for preventing or treating Alzheimer's disease” (FUJIFILM Toyama Chemical Co., Ltd., priority 2017, dated 2023).
# Tested on: mild to moderate AD patients
# Assay: Test Example 1: phase II placebo-controlled trial, ADAS-cog change from baseline
# Type: in vivo, human
# Description: Test Example 1 Multicenter Randomized Double-Blind Phase II Placebo-Controlled Trial for Assessing Effectiveness and Safety of Compound a in Mild to Moderate AD Patients
# Patients were screened in a period from 42 days before treatment assignment to the assignment based on the following selection criteria. Patients matched (484 patients) were randomly divided into the following 3 groups and the trial was started.
# • Patients who were probable AD and are 55 years old or older and 85 years old or younger at the time of obtaining consent of screening. • Patients with an MMSE score of 12 to 22 at the time of screening • Patients with a Modified Hachinski Ischemia Scale score of 4 or less • Patients who have been treated with a donepezil hydrochloride or rivastigmine transdermal system for at least 4 months before the baseline and with a stable dose thereof for 3 months before the baseline. • In the case of patients who have received memantine in addition to being treated with a donepezil hydrochloride or rivastigmine transdermal system, patients who have been treated with memantine for at least 4 months before the baseline and with a stable dose thereof for 3 months before the baseline. • Patients whose brain MRI or CT results match AD at the time of screening Organization of Groups: (1) High dose group: 224 mg of a test compound (160 mg in terms of Compound A) was orally administered once a day for 4 weeks and then 448 mg of a test compound (320 mg in terms of Compound A) was orally administered once a day for 48 weeks (158 patients) (2) Low dose group: 224 mg of a test compound (160 mg in terms of Compound A) was orally administered once a day for 52 weeks (166 patients) (3) Placebo group: placebo was orally administered once a day for 52 weeks (158 patients) Method of assessment: (1) ADAS-cog
# The ADAS-cog score of the subject was evaluated at the baseline (before administration of investigational drug on the first day of administration) and after 52 weeks and the cognitive function was assessed based on the change from the baseline.
# Changes in the ADAS-cog score and the ADCS-ADL score after 52 weeks from the baseline were compared between the high dose group and the placebo group, and between the low dose group and the placebo group based on the Mixed-effect Models for Repeated Measures (MMRM) with a significance level of 5%. For models, fixed effects included the treatment groups and time, while covariates included age, the baseline of ADAS-cog or ADCS-ADL, the baseline of MMSE and ApoE4 genotype (positive/negative). The interaction between time and the treatment groups and the interaction between the baseline of ADAS-cog and time were also included.
# [1] = high dose group, more than 2.6 years from clinical diagnosis
# [2] = high dose group, within 2.8 years from clinical diagnosis
# [3] = high dose group, within 3 years from clinical diagnosis
# [4] = high dose group, within 3.2 years from clinical diagnosis
# [5] = high dose group, within 3.4 years from clinical diagnosis
# [6] = high dose group, within 3.6 years from clinical diagnosis
# [7] = high dose group, within 3.8 years from clinical diagnosis
# [8] = high dose group, within 4.0 years from clinical diagnosis
# [9] = high dose group, within 5.0 years from clinical diagnosis
# [10] = high dose group, within 6.0 years from clinical diagnosis
# [11] = low dose group (160 mg), more than 2.6 years from clinical diagnosis
# [12] = low dose group (160 mg), total (all periods from clinical diagnosis)
compound,measurement,setting,value
"OC1CN(CCCOCCc2ccc3sccc3c2)C1 [Compound A, 1-(3-(2-(1-benzothiophen-5-yl)ethoxy)propyl)azetidin-3-ol]","Changes in ADAS-cog from the baseline at week 52, Compound A group versus placebo group (in words)","Test Example 1, all subject patients",no statistically significant difference
same,"Changes in ADAS-cog from the baseline at week 52, Compound A high dose group versus placebo group (in words)","Test Example 1, high dose group, patients within 2.6 years from clinical diagnosis of AD",statistically significant difference
same,"Difference in ADAS-cog change between high dose group and placebo group, compared by periods from clinical diagnosis (in words)","Test Example 1, high dose group, periods 2.5 to 6 years from clinical diagnosis of AD",larger in patients whose period was shorter
same,"Change in the ADAS-cog score, Compound A low dose group versus placebo group (in words)","Test Example 1, low dose group (160 mg), week 52",tended to be smaller than that in the placebo group
same,"Change in ADAS-cog from baseline at week 52, least square means (95% confidence interval)","high dose group (160 mg 4 weeks then 320 mg 48 weeks in terms of Compound A, oral once a day), within 2.5 years from clinical diagnosis",5.6
same,"Change in ADAS-cog from baseline at week 52, difference from placebo group (95% confidence interval)","high dose group (160 mg 4 weeks then 320 mg 48 weeks, oral once a day), within 2.5 years from clinical diagnosis",−3.3
same,"Change in ADAS-cog from baseline at week 52, difference from placebo group (95% confidence interval)",[1],"1.8(−1.0, 4.6)"
same,"Change in ADAS-cog from baseline at week 52, least square means (95% confidence interval)",[1],"8.4(6.3, 10.5)"
same,"Change in ADAS-cog from baseline at week 52, difference from placebo group (95% confidence interval)",[2],−2.5
same,"Change in ADAS-cog from baseline at week 52, least square means (95% confidence interval)",[2],6.2
same,"Change in ADAS-cog from baseline at week 52, difference from placebo group (95% confidence interval)",[3],−2.2
same,"Change in ADAS-cog from baseline at week 52, least square means (95% confidence interval)",[3],6.1
same,"Change in ADAS-cog from baseline at week 52, difference from placebo group (95% confidence interval)",[4],−2.0
same,"Change in ADAS-cog from baseline at week 52, least square means (95% confidence interval)",[4],6.4
same,"Change in ADAS-cog from baseline at week 52, difference from placebo group (95% confidence interval)",[5],−1.8
same,"Change in ADAS-cog from baseline at week 52, least square means (95% confidence interval)",[5],6.4
same,"Change in ADAS-cog from baseline at week 52, difference from placebo group (95% confidence interval)",[6],−1.8
same,"Change in ADAS-cog from baseline at week 52, least square means (95% confidence interval)",[6],6.7
same,"Change in ADAS-cog from baseline at week 52, difference from placebo group (95% confidence interval)",[7],−2.1
same,"Change in ADAS-cog from baseline at week 52, least square means (95% confidence interval)",[7],6.5
same,"Change in ADAS-cog from baseline at week 52, difference from placebo group (95% confidence interval)",[8],−1.7
same,"Change in ADAS-cog from baseline at week 52, least square means (95% confidence interval)",[8],6.6
same,"Change in ADAS-cog from baseline at week 52, difference from placebo group (95% confidence interval)",[9],−1.9
same,"Change in ADAS-cog from baseline at week 52, least square means (95% confidence interval)",[9],6.5
same,"Change in ADAS-cog from baseline at week 52, difference from placebo group (95% confidence interval)",[10],−0.9
same,"Change in ADAS-cog from baseline at week 52, least square means (95% confidence interval)",[10],7.2
same,"Change in ADAS-cog from baseline at week 52, least square means (95% confidence interval)","low dose group (160 mg in terms of Compound A, oral once a day, 52 weeks), within 2.6 years from clinical diagnosis","8.1 (6.0, 10.2)"
same,"Change in ADAS-cog from baseline at week 52, difference from placebo group (95% confidence interval)",[11],"0.1 (−2.5, 2.8)"
same,"Change in ADAS-cog from baseline at week 52, least square means (95% confidence interval)",[11],"6.8 (4.8, 8.7)"
same,"Change in ADAS-cog from baseline at week 52, difference from placebo group (95% confidence interval)",[12],"−0.5 (−2.4, 1.4)"
same,"Change in ADAS-cog from baseline at week 52, least square means (95% confidence interval)",[12],"7.4 (6.0, 8.9)"
